Laboratory results as given in US8927500B2, “Peptidomimetic macrocycles” (Aileron Therapeutics, Inc., priority 2012, dated 2015).
Where a SMILES comes first, the peptide text is derived from it. Bridges are numbered along the chain shown (N, C = ends). [ ]: non-standard residue; d: D form. 2Nal = N[C@@H](Cc1ccc2ccccc2c1)C(=O)O; R8 = C=CCCCCCC[C@@](C)(N)C(=O)O; Cba = N[C@@H](CC1CCC1)C(=O)O; S5 = C=CCCC[C@](C)(N)C(=O)O

What was measured:
MDMX = target: T1, MDMX (Homo sapiens, UniProt O15151); assay: Competitive fluorescence polarization assay for MDMX; assay type: binding; details: competitive FP assay; for IC50: read-out: IC50 (MDMX); for Ki: read-out: Ki (MDMX)
T1 sequence (O15151 1-125): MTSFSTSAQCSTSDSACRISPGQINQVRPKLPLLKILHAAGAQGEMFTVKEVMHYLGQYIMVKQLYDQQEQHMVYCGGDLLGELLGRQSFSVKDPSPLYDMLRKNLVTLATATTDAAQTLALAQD

Caspase 3 = Caspase 3 detection assay in SJSA1 cells; assay type: cell-based; details: 48 h, Caspase 3 activation over DMSO-treated cells; for caspase 0.3 uM: 0.3 uM peptide; for caspase 3 uM: 3 uM peptide; for caspase 10 uM: 10 uM peptide; for caspase 30 uM: 30 uM peptide; for caspase 1 uM: 1 uM peptide
SJSA-1 cells = assay: Cell lysis by peptidomimetic macrocycles (LDH release); assay type: cell-based; details: 1 h at 37C

CC(=O)N[C@@H](CC(C)C)C(=O)N[C@H](C(=O)N[C@@H](Cc1ccccc1)C(=O)N[C@]1(C)CCCCCCC=CCCC[C@@](C)(C(=O)N[C@@H](CO)C(=O)N[C@@H](C)C(=O)N[C@@H](C)C(N)=O)NC(=O)[C@H](CC2CCCCC2)NC(=O)[C@H](CCC(N)=O)NC(=O)[C@H](C)NC(=O)[C@H](Cc2c[nH]c3ccccc23)NC(=O)[C@H](Cc2ccc(O)cc2)NC(=O)[C@H](CCC(=O)O)NC1=O)[C@@H](C)O (single isomer, unassigned) [compound 148]
IC50 (MDMX): 100 to 1000 nM | Ki (MDMX): 10 to 100 nM | caspase 0.3 uM (Caspase 3): 1 | caspase 3 uM (Caspase 3): 11 | caspase 10 uM (Caspase 3): 23 | caspase 30 uM (Caspase 3): 31 | 6.25 uM % Lysed cells (1 h LDH) (SJSA-1 cells): 0% | 25 uM % Lysed cells (1 h LDH) (SJSA-1 cells): −1% | 50 uM % Lysed cells (1 h LDH) (SJSA-1 cells): 0%

CC[C@H](C)[C@H](NC(=O)[C@H](C)NC(=O)[C@H](C)NC(=O)[C@]1(C)CCCC=CCCCCCC[C@@](C)(NC(=O)[C@H](Cc2ccccc2)NC(=O)[C@@H](NC(=O)[C@H](CC(C)C)NC(C)=O)[C@@H](C)O)C(=O)N[C@@H](CCC(=O)O)C(=O)N[C@@H](Cc2c[nH]cn2)C(=O)N[C@@H](Cc2c[nH]c3ccccc23)C(=O)N[C@@H](C)C(=O)N[C@@H](CCC(N)=O)C(=O)N[C@@H](CC(C)C)C(=O)N1)C(=O)N[C@H](C)C(N)=O (single isomer, unassigned) [compound 223]
caspase 0.3 uM (Caspase 3): 1 | caspase 3 uM (Caspase 3): 1 | caspase 10 uM (Caspase 3): 5 | caspase 30 uM (Caspase 3): 18 | 6.25 uM % Lysed cells (1 h LDH) (SJSA-1 cells): −2% | 25 uM % Lysed cells (1 h LDH) (SJSA-1 cells): −4% | 50 uM % Lysed cells (1 h LDH) (SJSA-1 cells): −1%

CC(=O)N[C@@H](CC(C)C)C(=O)N[C@H](C(=O)N[C@@H](Cc1ccccc1)C(=O)N[C@]1(C)CCCCCCC=CCCC[C@@](C)(C(=O)N[C@@H](C)C(=O)N[C@@H](C)C(=O)N[C@@H](C)C(=O)N[C@@H](C)C(=O)N[C@@H](C)C(=O)N[C@H](C)C(N)=O)NC(=O)[C@H](CC(C)C)NC(=O)[C@H](CCC(N)=O)NC(=O)[C@H](C)NC(=O)[C@H](Cc2c[nH]c3cc(Cl)ccc23)NC(=O)[C@H](Cc2ccc(O)cc2)NC(=O)[C@H](C)NC1=O)[C@@H](C)O (single isomer, unassigned) [compound 338]
caspase 0.3 uM (Caspase 3): 1 | caspase 1 uM (Caspase 3): 5 | caspase 3 uM (Caspase 3): 23 | caspase 10 uM (Caspase 3): 20 | caspase 30 uM (Caspase 3): 29 | 6.25 uM % Lysed cells (1 h LDH) (SJSA-1 cells): 0% | 25 uM % Lysed cells (1 h LDH) (SJSA-1 cells): 0% | 50 uM % Lysed cells (1 h LDH) (SJSA-1 cells): 1%

CC(=O)N[C@@H](CC(C)C)C(=O)N[C@H](C(=O)N[C@@H](Cc1ccccc1)C(=O)N[C@]1(C)CCCCCCC=CCCC[C@@](C)(C(=O)N[C@@H](CO)C(=O)N[C@@H](C)C(=O)N[C@@H](C)C(=O)N[C@H](C)C(N)=O)NC(=O)[C@H](CC2CCC2)NC(=O)[C@H](CCC(N)=O)NC(=O)[C@H](C)NC(=O)[C@H](Cc2c[nH]c3ccccc23)NC(=O)[C@H](Cc2ccc(O)cc2)NC(=O)[C@H](CCC(=O)O)NC1=O)[C@@H](C)O (single isomer, unassigned) [compound 353]
IC50 (MDMX): 10 to 100 nM | Ki (MDMX): < 10 nM | caspase 0.3 uM (Caspase 3): 1 | caspase 1 uM (Caspase 3): 2 | caspase 3 uM (Caspase 3): 5 | caspase 10 uM (Caspase 3): 7 | caspase 30 uM (Caspase 3): 30 | 6.25 uM % Lysed cells (1 h LDH) (SJSA-1 cells): 0% | 25 uM % Lysed cells (1 h LDH) (SJSA-1 cells): 0% | 50 uM % Lysed cells (1 h LDH) (SJSA-1 cells): 0%

CSCC[C@H](NC(=O)[C@H](C)NC(=O)[C@H](C)NC(=O)[C@]1(C)CCCC=CCCCCCC[C@@](C)(NC(=O)[C@H](Cc2ccccc2)NC(=O)[C@@H](NC(=O)[C@H](CC(C)C)NC(C)=O)[C@@H](C)O)C(=O)N[C@@H](C)C(=O)N[C@@H](Cc2ccc(O)cc2)C(=O)N[C@@H](Cc2c[nH]c3ccccc23)C(=O)N[C@@H](C)C(=O)N[C@@H](C)C(=O)N[C@@H](CC(C)C)C(=O)N1)C(=O)N[C@H](C)C(N)=O [compound 72] (Ac-LTF[R8]AYWAAL[S5]AAM[dA]-NH2; staple 4-11)
caspase 0.3 uM (Caspase 3): 1 | caspase 3 uM (Caspase 3): 1 | caspase 10 uM (Caspase 3): 4 | caspase 30 uM (Caspase 3): 10 | 6.25 uM % Lysed cells (1 h LDH) (SJSA-1 cells): 2% | 25 uM % Lysed cells (1 h LDH) (SJSA-1 cells): 0% | 50 uM % Lysed cells (1 h LDH) (SJSA-1 cells): 3%

CC(=O)N[C@@H](CC(C)C)C(=O)N[C@H](C(=O)N[C@@H](Cc1ccc(F)c(F)c1)C(=O)N[C@]1(C)CCCCCC/C=C/CCC[C@@](C)(C(=O)N[C@@H](CO)C(=O)N[C@@H](C)C(=O)N[C@@H](C)C(N)=O)NC(=O)[C@H](CCC(C)C)NC(=O)[C@H](CCC(N)=O)NC(=O)[C@H](C)NC(=O)[C@H](Cc2c[nH]c3ccccc23)NC(=O)[C@H](Cc2ccc(O)cc2)NC(=O)[C@H](CCC(=O)O)NC1=O)[C@@H](C)O [compound 160]
caspase 0.3 uM (Caspase 3): 2 | caspase 3 uM (Caspase 3): 10 | caspase 10 uM (Caspase 3): 16 | caspase 30 uM (Caspase 3): 31 | 6.25 uM % Lysed cells (1 h LDH) (SJSA-1 cells): −1% | 25 uM % Lysed cells (1 h LDH) (SJSA-1 cells): −1% | 50 uM % Lysed cells (1 h LDH) (SJSA-1 cells): 1%

CC(=O)N[C@@H](CC(C)C)C(=O)N[C@H](C(=O)N[C@@H](Cc1ccccc1)C(=O)N[C@]1(C)CCCCCCC=CCCC[C@@](C)(C(=O)N[C@@H](C)C(=O)N[C@@H](Cc2c[nH]cn2)C(=O)N[C@@H](Cc2ccccc2)C(=O)N[C@@H](C)C(N)=O)NC(=O)[C@H](CC(C)C)NC(=O)[C@H](CCC(N)=O)NC(=O)[C@H](C)NC(=O)[C@H](Cc2c[nH]c3ccccc23)NC(=O)[C@H](Cc2c[nH]cn2)NC(=O)[C@H](C)NC1=O)[C@@H](C)O [compound 183] (Ac-LTF[R8]AHWAQL[S5]AHFA-NH2; staple 4-11)
caspase 0.3 uM (Caspase 3): 1 | caspase 3 uM (Caspase 3): 1 | caspase 10 uM (Caspase 3): 4 | caspase 30 uM (Caspase 3): 8 | 6.25 uM % Lysed cells (1 h LDH) (SJSA-1 cells): 2% | 25 uM % Lysed cells (1 h LDH) (SJSA-1 cells): 0% | 50 uM % Lysed cells (1 h LDH) (SJSA-1 cells): 3%

CC(=O)N[C@@H](CC(C)C)C(=O)N[C@H](C(=O)N[C@@H](Cc1ccccc1)C(=O)N[C@]1(C)CCCCCCC=CCCC[C@@](C)(C(=O)N[C@@H](CO)C(=O)N[C@@H](C)C(=O)N[C@@H](C)C(N)=O)NC(=O)[C@H](CC2CCC2)NC(=O)[C@H](CCC(N)=O)NC(=O)[C@H](C)NC(=O)[C@H](Cc2ccc3ccccc3c2)NC(=O)[C@H](Cc2ccc(O)cc2)NC(=O)[C@H](CCC(=O)O)NC1=O)[C@@H](C)O [compound 254] (Ac-LTF[R8]EY[2Nal]AQ[Cba][S5]SAA-NH2; staple 4-11)
IC50 (MDMX): 100 to 1000 nM | Ki (MDMX): 10 to 100 nM | caspase 0.3 uM (Caspase 3): 1 | caspase 1 uM (Caspase 3): 3 | caspase 3 uM (Caspase 3): 7 | caspase 10 uM (Caspase 3): 14 | caspase 30 uM (Caspase 3): 22 | 6.25 uM % Lysed cells (1 h LDH) (SJSA-1 cells): 11% | 25 uM % Lysed cells (1 h LDH) (SJSA-1 cells): 60% | 50 uM % Lysed cells (1 h LDH) (SJSA-1 cells): 75%

CC(=O)N[C@@H](CC(C)C)C(=O)N[C@H](C(=O)N[C@@H](Cc1ccccc1)C(=O)N[C@]1(C)CCCCCC/C=C/CCC[C@@](C)(C(=O)N[C@@H](C)C(=O)N[C@@H](C)C(=O)N[C@@H](C)C(=O)N[C@@H](C)C(=O)N[C@@H](C)C(=O)N[C@H](C)C(N)=O)NC(=O)[C@H](CC(C)C)NC(=O)[C@H](CCC(N)=O)NC(=O)[C@H](C)NC(=O)[C@H](Cc2c[nH]c3ccccc23)NC(=O)[C@H](Cc2ccc(O)cc2)NC(=O)[C@H](CCC(=O)O)NC1=O)[C@@H](C)O [compound 331] (Ac-LTF[R8]EYWAQL[S5]AAAAA[dA]-NH2; staple (E) 4-11)
caspase 0.3 uM (Caspase 3): 4.5 | caspase 1 uM (Caspase 3): 8 | caspase 3 uM (Caspase 3): 11 | caspase 10 uM (Caspase 3): 14.5 | caspase 30 uM (Caspase 3): 30.5 | 6.25 uM % Lysed cells (1 h LDH) (SJSA-1 cells): 0% | 25 uM % Lysed cells (1 h LDH) (SJSA-1 cells): 0% | 50 uM % Lysed cells (1 h LDH) (SJSA-1 cells): 0%
